In ChEMBL document CHEMBL1649156, “Antianaerobic activity of sulopenem compared to six other agents” (2009):
In brackets after ≈: the same amount, converted by molar mass.

Columns and labels:
Assay type in all cases: functional
Prevotella baroniae = assay: Antimicrobial activity in Prevotella baroniae by CLSI agar dilution method; details: Segatella baroniae
Hoylesella oralis = assay: Antimicrobial activity in Prevotella oralis group by CLSI agar dilution method
Prevotella veroralis = assay: Antimicrobial activity in Prevotella veroralis by CLSI agar dilution method
Prevotella bergensis = assay: Antimicrobial activity in Prevotella bergensis by CLSI agar dilution method; details: Hallella bergensis
Prevotella salivae = assay: Antimicrobial activity in Prevotella salivae by CLSI agar dilution method; details: Segatella salivae
Hoylesella loescheii = assay: Antimicrobial activity in Prevotella loescheii by CLSI agar dilution method
Prevotella sp. = assay: Antimicrobial activity in Prevotella sp.by CLSI agar dilution method
[1] = tested on: Porphyromonas asaccharolytica; assay: Antimicrobial activity in Porphyromonas asaccharolytica by CLSI agar dilution method
Fusobacterium nucleatum = assay: Antimicrobial activity in Fusobacterium nucleatum by CLSI agar dilution method
[2] = tested on: Fusobacterium necrophorum; assay: Antimicrobial activity in Fusobacterium necrophorum by CLSI agar dilution method
Fusobacterium mortiferum = assay: Antimicrobial activity in Fusobacterium mortiferum by CLSI agar dilution method
Fusobacterium varium = assay: Antimicrobial activity in Fusobacterium varium by CLSI agar dilution method
Finegoldia magna = assay: Antimicrobial activity in Finegoldia magna by CLSI agar dilution method
Parvimonas micra = assay: Antimicrobial activity in Micromonas micros by CLSI agar dilution method
[3] = tested on: Peptostreptococcus anaerobius; assay: Antimicrobial activity in Peptostreptococcus anaerobius by CLSI agar dilution method
[4] = tested on: Peptoniphilus asaccharolyticus; assay: Antimicrobial activity in Peptoniphilus asaccharolyticus by CLSI agar dilution method
Anaerococcus tetradius = assay: Antimicrobial activity in Anaerococcus tetradius by CLSI agar dilution method
Anaerococcus prevotii = assay: Antimicrobial activity in Anaerococcus prevotii by CLSI agar dilution method
Lactobacillus = assay: Antimicrobial activity in Lactobacillus by CLSI agar dilution method
Bifidobacterium = assay: Antimicrobial activity in Bifidobacterium by CLSI agar dilution method
Cutibacterium acnes = assay: Antimicrobial activity in Propionibacterium acnes by CLSI agar dilution method
Actinomyces = assay: Antimicrobial activity in Actinomyces by CLSI agar dilution method
Eggerthella lenta [5] = assay: Antimicrobial activity in Eggerthella lenta by CLSI agar dilution method
Clostridium perfringens = assay: Antimicrobial activity in Clostridium perfringens by CLSI agar dilution method
Clostridioides difficile = assay: Antimicrobial activity in Clostridium difficile by CLSI agar dilution method
Clostridium sp. = assay: Antimicrobial activity in Clostridium sp. by CLSI agar dilution method
Clostridium tertium = assay: Antimicrobial activity in Clostridium tertium by CLSI agar dilution method
Thomasclavelia ramosa = assay: Antimicrobial activity in Clostridium ramosum by CLSI agar dilution method
Clostridium cadaveris = assay: Antimicrobial activity in Clostridium cadaveris by CLSI agar dilution method
[6] = tested on: Paraclostridium bifermentans; assay: Antimicrobial activity in Clostridium bifermentans by CLSI agar dilution method
[Clostridium] innocuum = Antimicrobial activity in Clostridium innocuum by CLSI agar dilution method
[7] = tested on: Paeniclostridium sordellii; assay: Antimicrobial activity in Clostridium sordellii by CLSI agar dilution method; details: Paraclostridium sordellii
Clostridium butyricum = assay: Antimicrobial activity in Clostridium butyricum by CLSI agar dilution method
[8] = tested on: Enterocloster clostridioformis; assay: Antimicrobial activity in Clostridium clostridioforme by CLSI agar dilution method
Bacteroides fragilis [9] = assay: Antimicrobial activity in Bacteroides fragilis by CLSI agar dilution method
[10] = tested on: Bacteroides thetaiotaomicron; assay: Antimicrobial activity in Bacteroides thetaiotaomicron by CLSI agar dilution method
Bacteroides ovatus = assay: Antimicrobial activity in Bacteroides ovatus by CLSI agar dilution method
Phocaeicola vulgatus = assay: Antimicrobial activity in Bacteroides vulgatus by CLSI agar dilution method
[11] = tested on: Parabacteroides distasonis; assay: Antimicrobial activity in Bacteroides distasonis by CLSI agar dilution method
Bacteroides uniformis = assay: Antimicrobial activity in Bacteroides uniformis by CLSI agar dilution method
Bacteroides stercoris = assay: Antimicrobial activity in Bacteroides stercoris by CLSI agar dilution method
Prevotella bivia = assay: Antimicrobial activity in Prevotella bivia by CLSI agar dilution method
Prevotella buccae = assay: Antimicrobial activity in Prevotella buccae by CLSI agar dilution method; details: Segatella buccae
[12] = tested on: Prevotella melaninogenica; assay: Antimicrobial activity in Prevotella melaninogenica by CLSI agar dilution method
Prevotella denticola = assay: Antimicrobial activity in Prevotella denticola by CLSI agar dilution method
Prevotella intermedia = assay: Antimicrobial activity in Prevotella intermedia by CLSI agar dilution method
Prevotella nigrescens = assay: Antimicrobial activity in Prevotella nigrescens by CLSI agar dilution method
Prevotella corporis = assay: Antimicrobial activity in Prevotella corporis by CLSI agar dilution method
Prevotella disiens = assay: Antimicrobial activity in Prevotella disiens by CLSI agar dilution method
Tissierella praeacuta = assay: Antimicrobial activity in Clostridium hastiforme by CLSI agar dilution method
Bacteroides fragilis [13] = assay: Antimicrobial activity in Bacteroides fragilis ATCC 25285 by CLSI agar dilution method
[14] = tested on: Bacteroides thetaiotaomicron; assay: Antimicrobial activity in Bacteroides thetaiotaomicron ATCC 29741 by CLSI agar dilution method
Eggerthella lenta [15] = assay: Antimicrobial activity in Eggerthella lenta ATCC 43055 by CLSI agar dilution method
Porphyromonas gingivalis = assay: Antimicrobial activity in Porphyromonas gingivalis by CLSI agar dilution method

In the case of `C[C@@H](O)[C@H]1C(=O)N2C(C(=O)O)=C(S[C@H]3CC[S@@+]([O-])C3)S[C@H]12` [SULOPENEM], the MIC (Prevotella baroniae) is reported as 0.06 µg/mL (≈ 0.172 µM), the MIC (Hoylesella oralis) is reported as ≤ 0.016 µg/mL and the MIC (Prevotella veroralis) is reported as 0.06 µg/mL (≈ 0.172 µM). The MIC (Prevotella bergensis) was 0.125 µg/mL (≈ 0.358 µM), the MIC (Prevotella salivae) was 0.06 µg/mL (≈ 0.172 µM) and the MIC (Hoylesella loescheii) was 0.125 µg/mL (≈ 0.358 µM). For the same compound, the MIC (Prevotella sp.) was 0.03 µg/mL (≈ 0.0858 µM), the MIC [1] was ≤ 0.016 µg/mL and the MIC (Fusobacterium nucleatum) was ≤ 0.016 µg/mL. For the same compound, the MIC50 (Fusobacterium nucleatum) was ≤ 0.016 µg/mL, the MIC90 (Fusobacterium nucleatum) was 0.03 µg/mL (≈ 0.0858 µM) and the MIC [2] was ≤ 0.016 µg/mL. The MIC50 [2] was ≤ 0.016 µg/mL, the MIC50 (Fusobacterium mortiferum) was 0.5 µg/mL (≈ 1.43 µM) and the MIC90 (Fusobacterium mortiferum) was 0.5 µg/mL (≈ 1.43 µM). The MIC50 (Fusobacterium varium) was 0.5 µg/mL (≈ 1.43 µM), the MIC90 (Fusobacterium varium) was 0.5 µg/mL (≈ 1.43 µM) and the MIC50 (Finegoldia magna) was 0.25 µg/mL (≈ 0.715 µM). The MIC90 (Finegoldia magna) was 0.25 µg/mL (≈ 0.715 µM), the MIC (Parvimonas micra) was 0.125 µg/mL (≈ 0.358 µM) and the MIC50 (Parvimonas micra) was 0.125 µg/mL (≈ 0.358 µM). The MIC90 (Parvimonas micra) was 0.125 µg/mL (≈ 0.358 µM), the MIC50 [3] was 0.5 µg/mL (≈ 1.43 µM) and the MIC90 [3] was 2 µg/mL (≈ 5.72 µM). It also gave an MIC [4] of 0.03 µg/mL (≈ 0.0858 µM), an MIC50 [4] of 0.06 µg/mL (≈ 0.172 µM) and an MIC50 (Anaerococcus tetradius) of 0.125 µg/mL (≈ 0.358 µM). For the same compound, the MIC90 (Anaerococcus tetradius) was 0.25 µg/mL (≈ 0.715 µM), the MIC (Anaerococcus prevotii) was 0.03 µg/mL (≈ 0.0858 µM) and the MIC50 (Lactobacillus) was > 8 µg/mL. For the same compound, the MIC90 (Lactobacillus) was > 8 µg/mL, the MIC50 (Bifidobacterium) was 0.25 µg/mL (≈ 0.715 µM) and the MIC90 (Bifidobacterium) was 1 µg/mL (≈ 2.86 µM). It also gave an MIC (Cutibacterium acnes) of 0.125 µg/mL (≈ 0.358 µM), an MIC50 (Cutibacterium acnes) of 0.125 µg/mL (≈ 0.358 µM) and an MIC90 (Cutibacterium acnes) of 0.25 µg/mL (≈ 0.715 µM). It also gave an MIC (Actinomyces) of 0.25 µg/mL (≈ 0.715 µM), an MIC50 (Actinomyces) of 0.5 µg/mL (≈ 1.43 µM) and an MIC (Eggerthella lenta [5]) of 1 µg/mL (≈ 2.86 µM). For the same compound, the MIC50 (Eggerthella lenta [5]) was 1 µg/mL (≈ 2.86 µM), the MIC90 (Eggerthella lenta [5]) was 1 µg/mL (≈ 2.86 µM) and the MIC50 (Clostridium perfringens) was 0.125 µg/mL (≈ 0.358 µM). It also gave an MIC90 (Clostridium perfringens) of 0.25 µg/mL (≈ 0.715 µM), an MIC (Clostridioides difficile) of 2 µg/mL (≈ 5.72 µM) and an MIC50 (Clostridioides difficile) of 2 µg/mL (≈ 5.72 µM). It also gave an MIC90 (Clostridioides difficile) of 4 µg/mL (≈ 11.4 µM), an MIC50 (Clostridium sp.) of 2 µg/mL (≈ 5.72 µM) and an MIC90 (Clostridium sp.) of 4 µg/mL (≈ 11.4 µM). It also gave an MIC (Clostridium tertium) of 1 µg/mL (≈ 2.86 µM), an MIC50 (Clostridium tertium) of 1 µg/mL (≈ 2.86 µM) and an MIC (Thomasclavelia ramosa) of 0.5 µg/mL (≈ 1.43 µM). It also gave an MIC (Clostridium cadaveris) of 0.25 µg/mL (≈ 0.715 µM), an MIC [6] of 0.5 µg/mL (≈ 1.43 µM) and an MIC ([Clostridium] innocuum) of 0.25 µg/mL (≈ 0.715 µM). It also gave an MIC [7] of 0.125 µg/mL (≈ 0.358 µM), an MIC (Clostridium butyricum) of 0.5 µg/mL (≈ 1.43 µM) and an MIC [8] of 1 µg/mL (≈ 2.86 µM). For the same compound, the MIC50 (Bacteroides fragilis [9]) was 0.125 µg/mL (≈ 0.358 µM), the MIC90 (Bacteroides fragilis [9]) was 0.5 µg/mL (≈ 1.43 µM) and the MIC [10] was 0.25 µg/mL (≈ 0.715 µM). For the same compound, the MIC50 [10] was 0.25 µg/mL (≈ 0.715 µM), the MIC90 [10] was 0.5 µg/mL (≈ 1.43 µM) and the MIC (Bacteroides ovatus) was 0.25 µg/mL (≈ 0.715 µM). It also gave an MIC50 (Bacteroides ovatus) of 0.25 µg/mL (≈ 0.715 µM), an MIC90 (Bacteroides ovatus) of 0.5 µg/mL (≈ 1.43 µM) and an MIC50 (Phocaeicola vulgatus) of 0.5 µg/mL (≈ 1.43 µM). The MIC90 (Phocaeicola vulgatus) was 1 µg/mL (≈ 2.86 µM), the MIC50 [11] was 0.5 µg/mL (≈ 1.43 µM) and the MIC90 [11] was 1 µg/mL (≈ 2.86 µM). For the same compound, the MIC (Bacteroides uniformis) was 0.25 µg/mL (≈ 0.715 µM), the MIC50 (Bacteroides uniformis) was 0.25 µg/mL (≈ 0.715 µM) and the MIC (Bacteroides stercoris) was 0.25 µg/mL (≈ 0.715 µM). For the same compound, the MIC50 (Bacteroides stercoris) was 0.25 µg/mL (≈ 0.715 µM), the MIC50 (Prevotella bivia) was 0.125 µg/mL (≈ 0.358 µM) and the MIC90 (Prevotella bivia) was 0.25 µg/mL (≈ 0.715 µM). It also gave an MIC50 (Prevotella buccae) of 0.125 µg/mL (≈ 0.358 µM), an MIC90 (Prevotella buccae) of 0.25 µg/mL (≈ 0.715 µM) and an MIC50 [12] of 0.125 µg/mL (≈ 0.358 µM). It also gave an MIC90 [12] of 0.25 µg/mL (≈ 0.715 µM), an MIC50 (Prevotella denticola) of 0.125 µg/mL (≈ 0.358 µM) and an MIC90 (Prevotella denticola) of 0.25 µg/mL (≈ 0.715 µM). The MIC50 (Prevotella intermedia) was 0.06 µg/mL (≈ 0.172 µM), the MIC90 (Prevotella intermedia) was 0.125 µg/mL (≈ 0.358 µM) and the MIC50 (Prevotella nigrescens) was 0.06 µg/mL (≈ 0.172 µM). It also gave an MIC90 (Prevotella nigrescens) of 0.125 µg/mL (≈ 0.358 µM), an MIC (Prevotella corporis) of 0.03 µg/mL (≈ 0.0858 µM) and an MIC50 (Prevotella corporis) of 0.06 µg/mL (≈ 0.172 µM). It also gave an MIC (Prevotella disiens) of 0.03 µg/mL (≈ 0.0858 µM), an MIC50 (Prevotella disiens) of 0.125 µg/mL (≈ 0.358 µM) and an MIC (Tissierella praeacuta) of 2 µg/mL (≈ 5.72 µM). For the same compound, the MIC (Bacteroides fragilis [13]) was 0.06 µg/mL (≈ 0.172 µM), the MIC [14] was 0.06 µg/mL (≈ 0.172 µM) and the MIC (Eggerthella lenta [15]) was 0.06 µg/mL (≈ 0.172 µM). For the same compound, the MIC (Porphyromonas gingivalis) was 0.03 µg/mL (≈ 0.0858 µM).
